The text below walks through data of patent US7989494B2, “Polymorphs of N-hydroxy-3-[4-[[[2-(2-methyl-1H-indol-3-yl)ethyl]amino]methyl]phenyl]-2E-2-propenamide” (Novartis AG, priority 2006, dated 2011).

Each structure is given as a SMILES string. ≈ marks a conversion by molar mass, not a printed value. Counter-ions that a name gives are not always drawn. Like-named read-outs stand apart in the source and are kept apart here.

What all share (type): physicochemical
Data set [1] can be described thus: Equilibration in solvents and aqueous media, solid form by XRPD.
The nature of data set [2]: Hygroscopicity (descriptive).
Another data set is described as follows: Aqueous solubility. To be noted: water.
Data set [3] can be described thus: Sorption-desorption isotherms, VTI humidity balance. To be noted: for Sorption: 25° C., first sorption cycle; for Desorption: in % (unit assumed). Here is the method: Sorption-desorption isotherms were recorded by a VTI humidity balance. The salts of (N-hydroxy-3-[4-[[[2-(2-methyl-1H-indol-3-yl)ethyl]amino]methyl]phenyl]-2E-2-propenamide were first subjected to a drying step (25° C., r.h. below 2%, 2 hours) and then to a sorption-desorption-sorption sequence, with each RH % step retained for 3 hours. The free base was kept below 2% r.h. for several hours, and thus was completely dehydrated after the drying step. Only the data of the first sorption cycle are given in the table, since, in all cases, the two sorption cycles were very similar.

Data set [4] is described as follows: Solubility in organic solvents. To be noted: for solubility: organic solvent or mixture.
Data set [5] is described as follows: Hydration/dehydration of free base forms on storage or under vacuum. To be noted: for form change upon storage: storage at ambient conditions.

Consider `Cc1[nH]c2ccccc2c1CCNCc1ccc(/C=C/C(=O)NO)cc1` (racemic) [Form A of the DL-lactate salt, N-hydroxy-3-[4-[[[2-(2-methyl-1H-indol-3-yl)ethyl]amino]methyl]phenyl]-2E-2-propenamide], for which the “form observed on equilibration” value in data set [1] (at 0° C. and 10° C. and in acetone/water mixture) is listed as “observed along with form HA”. Also, the “relative stability of the form” value in data set [1] (in water and in most organic solvents) is “more stable than the other forms of the DL-lactate salt”. Further, in data set [1], the “form after equilibration at pH 1 and 2” value is “the chloride salt is formed”; the “form conversion under most circumstances” value was “does not convert into any other form”. The hygroscopicity entry in data set [2] is “slightly hygroscopic”.
In the case of `Cc1[nH]c2ccccc2c1CCNCc1ccc(/C=C/C(=O)NO)cc1` (racemic) [Form HA of the DL-lactate salt, N-hydroxy-3-[4-[[[2-(2-methyl-1H-indol-3-yl)ethyl]amino]methyl]phenyl]-2E-2-propenamide], in data set [1] (Methanol), the “XRPD form after equilibration” value is reported as “converts to form SA”. Moreover, in data set [1], the “form after equilibration at pH 1 and 2” value was “the chloride salt is formed”; the “form conversion under most circumstances” value is recorded as “slowly converts into form A”. Moreover, the hygroscopicity entry in data set [2] is “slightly hygroscopic”.
In the case of `Cc1[nH]c2ccccc2c1CCNCc1ccc(/C=C/C(=O)NO)cc1` [Form A of the acetate salt, N-hydroxy-3-[4-[[[2-(2-methyl-1H-indol-3-yl)ethyl]amino]methyl]phenyl]-2E-2-propenamide], in the data set “Aqueous solubility”, the aqueous solubility is ~2000 µg/mL.
Take `Cc1[nH]c2ccccc2c1CCNCc1ccc(/C=C/C(=O)NO)cc1` [Form A of the benzoate salt, N-hydroxy-3-[4-[[[2-(2-methyl-1H-indol-3-yl)ethyl]amino]methyl]phenyl]-2E-2-propenamide]: in “Aqueous solubility”, the aqueous solubility is ~700 µg/mL.
On the same count and under the same terms, the figure for `Cc1[nH]c2ccccc2c1CCNCc1ccc(/C=C/C(=O)NO)cc1` [Form A of the hemi-fumarate salt, N-hydroxy-3-[4-[[[2-(2-methyl-1H-indol-3-yl)ethyl]amino]methyl]phenyl]-2E-2-propenamide] is ~400 µg/mL; for `Cc1[nH]c2ccccc2c1CCNCc1ccc(/C=C/C(=O)NO)cc1` [Form A of the hemi-malate salt, N-hydroxy-3-[4-[[[2-(2-methyl-1H-indol-3-yl)ethyl]amino]methyl]phenyl]-2E-2-propenamide] it is ~1400 µg/mL; for `Cc1[nH]c2ccccc2c1CCNCc1ccc(/C=C/C(=O)NO)cc1` [Form A of the hemi-succinate salt, N-hydroxy-3-[4-[[[2-(2-methyl-1H-indol-3-yl)ethyl]amino]methyl]phenyl]-2E-2-propenamide] it is ~400 µg/mL.
In the case of `Cc1[nH]c2ccccc2c1CCNCc1ccc(/C=C/C(=O)NO)cc1` [Form A of the phosphate salt, N-hydroxy-3-[4-[[[2-(2-methyl-1H-indol-3-yl)ethyl]amino]methyl]phenyl]-2E-2-propenamide], the aqueous solubility in “Aqueous solubility” is ~6000 µg/mL.
`Cc1[nH]c2ccccc2c1CCNCc1ccc(/C=C/C(=O)NO)cc1` [Form A of the propionate salt, N-hydroxy-3-[4-[[[2-(2-methyl-1H-indol-3-yl)ethyl]amino]methyl]phenyl]-2E-2-propenamide]: in the data set “Aqueous solubility”, the aqueous solubility is ~4000 µg/mL.
For `Cc1[nH]c2ccccc2c1CCNCc1ccc(/C=C/C(=O)NO)cc1` [Form A of the sulfate salt, N-hydroxy-3-[4-[[[2-(2-methyl-1H-indol-3-yl)ethyl]amino]methyl]phenyl]-2E-2-propenamide], the hygroscopicity result in data set [2] is listed as “visibly hygroscopic”.
For the compound `Cc1[nH]c2ccccc2c1CCNCc1ccc(/C=C/C(=O)NO)cc1` [Form B of the tartarate salt, N-hydroxy-3-[4-[[[2-(2-methyl-1H-indol-3-yl)ethyl]amino]methyl]phenyl]-2E-2-propenamide], the hygroscopicity entry in data set [2] is listed as “hygroscopic”.
As to `Cc1[nH]c2ccccc2c1CCNCc1ccc(/C=C/C(=O)NO)cc1` [Free Base, N-hydroxy-3-[4-[[[2-(2-methyl-1H-indol-3-yl)ethyl]amino]methyl]phenyl]-2E-2-propenamide], the Sorption is 0% in data set [3] (Sample RH % 1.5); 0.06% in data set [3] (Sample RH % 5); 3.39% in data set [3] (Sample RH % 25); 5.17% in data set [3] (Sample RH % 50); 5.22% in data set [3] (Sample RH % 75); 5.24% in data set [3] (Sample RH % 85). In data set [3] (Sample RH % 95), this compound gave a Sorption of 5.37%. Also, the Desorption came to 4.11 in data set [3] (Sample RH % 5); 5.11 in data set [3] (Sample RH % 25); 5.21 in data set [3] (Sample RH % 50); 5.31 in data set [3] (Sample RH % 75); 5.33 in data set [3] (Sample RH % 85); 5.37 in data set [3] (Sample RH % 95). Moreover, the “XRPD form after equilibration” value in data set [1] (2-Propanol) is “No change”; in data set [1] (Acetone), “No change”; in data set [1] (Ethanol), “Changed to new”; in data set [1] (Ethyl Acetate) it was “No change”; in data set [1] (Methanol), “Changed to new”; in data set [1] (pH = 6.8 buffer (phosphate)), “No change”. In data set [1] (water), the “XRPD form after equilibration” value was “No change”.
As for `Cc1[nH]c2ccccc2c1CCNCc1ccc(/C=C/C(=O)NO)cc1` [free base form A, N-hydroxy-3-[4-[[[2-(2-methyl-1H-indol-3-yl)ethyl]amino]methyl]phenyl]-2E-2-propenamide], the “solubility in hot ethanol” value in data set [4] (listed as Form A) was “soluble”.
On to `Cc1[nH]c2ccccc2c1CCNCc1ccc(/C=C/C(=O)NO)cc1` [free base form B, N-hydroxy-3-[4-[[[2-(2-methyl-1H-indol-3-yl)ethyl]amino]methyl]phenyl]-2E-2-propenamide], for which, in data set [4] (listed as form B), the “solubility in hot ethanol” value is recorded as “insoluble”.
With `Cc1[nH]c2ccccc2c1CCNCc1ccc(/C=C/C(=O)NO)cc1` [free base form C, N-hydroxy-3-[4-[[[2-(2-methyl-1H-indol-3-yl)ethyl]amino]methyl]phenyl]-2E-2-propenamide], the figures for the “form change upon storage” value in data set [5] (listed as Form C) and in data set [5] (listed as form C) were “spontaneously rehydrate to form HA” and “rehydrate back to form HA”, respectively. Also, the “solubility in hot ethanol-water mixture” value in data set [4] (hot ethanol-water mixture) was “soluble”.
As to `Cc1[nH]c2ccccc2c1CCNCc1ccc(/C=C/C(=O)NO)cc1` [free base form HA, N-hydroxy-3-[4-[[[2-(2-methyl-1H-indol-3-yl)ethyl]amino]methyl]phenyl]-2E-2-propenamide], in data set [5] (under vacuum even at ambient temperature), the “form change under vacuum” value is “completely dehydrates and converts to form C”. Moreover, the aqueous solubility entry in the data set “Aqueous solubility” is reported as “approximately 0.004 mg/mL”. Further, in data set [2], the hygroscopicity result is reported as “slightly hygroscopic”. For the same compound, the solubility in data set [4] (ethanol, read-out: solubility in ethanol) was ~1500 µg/mL (≈ 4.29 mM); in data set [4] (ethyl acetate, read-out: solubility in ethyl acetate), ~5600 µg/mL (≈ 16 mM); in data set [4] (methanol, read-out: solubility in methanol), ~2300 µg/mL (≈ 6.58 mM).
Regarding `Cc1[nH]c2ccccc2c1CCNCc1ccc(/C=C/C(=O)NO)cc1` [white crystalline solid, N-hydroxy-3-[4-[[[2-(2-methyl-1H-indol-3-yl)ethyl]amino]methyl]phenyl]-2E-2-propenamide], the hygroscopicity result in data set [2] is recorded as “non-hygroscopic”.
In the case of `Cc1[nH]c2ccccc2c1CCNCc1ccc(/C=C/C(=O)NO)cc1` [yellow powder, N-hydroxy-3-[4-[[[2-(2-methyl-1H-indol-3-yl)ethyl]amino]methyl]phenyl]-2E-2-propenamide], in data set [2], the hygroscopicity entry is on record as “very highly hygroscopic”.

Usually aqueous solubility stands for the concentration that dissolves in the medium under given conditions. Read a high aqueous solubility as a readily soluble substance. The term solubility denotes how much of the substance goes into solution per volume.
